Source: patent publication US20240066003A1, “NEURODEVELOPMENTAL DISORDER THERAPY” (Anavex Life Sciences Corp., priority 2016, published 2024)

Columns and labels:
[1] = test system: Williams syndrome; assay: Example 6 weight gain in Williams syndrome patient; format: in vivo, human; details: person, i.v. 5 mg every other day, after 60 days
Method: A person presents with Williams syndrome. […] They begin treatment with i.v. doses of A2-73 at 5 mg every other day.

[2] = test system: heterozygous MECP2knockout mice (HET); assay: Rotarod; format: in vivo
Method: Studies employed wild type (WT) mice and heterozygous MECP2knockout mice (HET) All mice were provided by Jackson Laboratory, Bar Harbor, Maine. HET mice were Bird mice (Jackson Laboratories, Bar Harbor, ME, B6.129P2(C)-Mecp2^tm1.1Bird/Stock Number: 003890) were obtained by crossing het females with wild type (WT) males (C57B/6J). […] Mecp2 females testing at ˜8 and ˜12 weeks of age WT—vehicle (0.25% MC/dH2O) HET—vehicle (0.25% MC/dH2O) HET—A2-733 (10 mg/kg) HET—A2-733 (30 mg/kg) Chronic dosing (p.o.) daily, starting at ˜5.5 weeks of age and continuing through the 12-week behavioral testing time point 60 min pre-treatment during behavioral testing. The rotarod performance test is a performance test based on a rotating rod with forced motor activity being applied, usually by a rodent. The test measures parameters such as riding time (seconds) or endurance. Some of the functions of the test include evaluating balance, grip strength, and motor coordination of the subjects; especially in testing the effect of experimental drugs or after traumatic brain injury. Mice are placed on the rotarod apparatus (PsychoGenics, Tarrytown New York) consisting of a rod that rotates at a constant or variable and accelerating speed of 4 rpm. Once a mouse loses its balance and falls onto an underlying platform the timer automatically stops. Mice are exposed to the apparatus for 5 min training at a constant speed and placed back on the rod after each fall. After a rest period of at least 1 hr. animals are placed back on the rotarod apparatus for testing. Once all animals in a test session are loaded on the rod, the rotarod apparatus is placed on accelerating speed (0-40 rpm) over 5 min and the time until the first fall is recorded. The test is repeated three consecutive times per animal. For each test session, the RPM score at time of fall off the rod are recorded.

[3] = test system: muscarinic acetylcholine receptors; details: believed to bind; cited from earlier work
[4] = test system: heterozygous MECP2knockout mice (HET); assay: Startle/PPI; format: in vivo
Method: Studies employed wild type (WT) mice and heterozygous MECP2knockout mice (HET) All mice were provided by Jackson Laboratory, Bar Harbor, Maine. HET mice were Bird mice (Jackson Laboratories, Bar Harbor, ME, B6.129P2(C)-Mecp2^tm1.1Bird/Stock Number: 003890) were obtained by crossing het females with wild type (WT) males (C57B/6J). […] Mecp2 females testing at ˜8 and ˜12 weeks of age WT—vehicle (0.25% MC/dH2O) HET—vehicle (0.25% MC/dH2O) HET—A2-733 (10 mg/kg) HET—A2-733 (30 mg/kg) Chronic dosing (p.o.) daily, starting at ˜5.5 weeks of age and continuing through the 12-week behavioral testing time point 60 min pre-treatment during behavioral testing. The acoustic startle measures an unconditioned reflex response to external auditory stimulation. Mice are placed in the prepulse inhibition (PPI) chambers for a 5 min session of white noise (70 dB) habituation. Then the session starts with a habituation block of 6 presentations of the startle stimulus alone, followed by 10 PPI blocks of 6 different types of trials [null (no stimuli), startle (120 dB), startle plus prepulse (4, 8 and 12 dB over background noise i.e. 74, 78 or 82 dB) and prepulse alone (82 dB)] presented at random within each block. The amount of inhibition of the normal startle is determined and expressed as a percentage of the basic startle response (from startle alone trials), excluding the startle response of the first habituation block.

[5] = test system: heterozygous MECP2knockout mice (HET); assay: Clasping of hind legs; format: in vivo; details: 8 weeks of age; 30 mg/kg p.o. daily
Method: (§1) Studies employed wild type (WT) mice and heterozygous MECP2knockout mice (HET) All mice were provided by Jackson Laboratory, Bar Harbor, Maine. HET mice were Bird mice (Jackson Laboratories, Bar Harbor, ME, B6.129P2(C)-Mecp2^tm1.1Bird/Stock Number: 003890) were obtained by crossing het females with wild type (WT) males (C57B/6J). […] Mecp2 females testing at ˜8 and ˜12 weeks of age WT—vehicle (0.25% MC/dH2O) HET—vehicle (0.25% MC/dH2O) HET—A2-733 (10 mg/kg) HET—A2-733 (30 mg/kg) Chronic dosing (p.o.) daily, starting at ˜5.5 weeks of age and continuing through the 12-week behavioral testing time point 60 min pre-treatment during behavioral testing. Mice are lifted gently by the tail with front limbs remaining on surface. Clasping of hind legs is noted (normal is a spread in the hind legs).

[6] = test system: Rett syndrome; assay: Example 1 breathing variability in Rett syndrome patient; format: in vivo, human; details: person, oral 4 mg daily for 10 days
Method: A person presenting with Rett syndrome is administered oral doses of A2-73 at 4 mg daily for 10 days. On presentation, their breathing is abnormal. Their mean breaths per minute is calculated to assess breathing variability.

[7] = Body weight of Mecp2 HET mice under chronic dosing; format: in vivo; details: 30 mg/kg p.o. daily, 6.5 weeks after dosing began; Treatment×Age effect p<0.001
Method: as §1, with “[…] FIG. 1 There was a significant Treatment×Age effect (p<0.001), where mice treated” for “Mice are lifted gently by the tail”, “A2-733 (30 mg/kg) weighed less than vehicle-treated mutant mice 6.5 weeks after dosing began.” for “front limbs remaining on surface. Clasping of hind legs is noted (normal is a spread in the hind legs).”

[8] = test system: Rett syndrome; assay: Example 4 eating and choking in Rett syndrome patient; format: in vivo, human; details: person, oral 40 mg every other day, after 60 days
Method: A person presents with Rett syndrome. […] They begin treatment with oral doses of A2-73 at 40 mg every other day.

[9] = 8 weeks of age, 10 and 30 mg/kg p.o. daily, HET mice
[10] = 12 weeks of age, both doses (10 and 30 mg/kg p.o. daily)

Compound: CN(C)CC1CCOC1(c1ccccc1)c1ccccc1.Cl (centres unmarked) [A2-73, tetrahydro-N,N-dimethyl-2,2-diphenyl-3-furanmethanamine hydrochloride]
- weight gain [1]: 10%
- rotarod speed at fall, treatment effect [2, 9]: No significant treatment effects
- rotarod time to fall, treatment effect [2, 9]: No significant treatment effects
- rotarod speed at fall vs vehicle-treated mutant mice [2, 10]: fell at higher speeds
- rotarod time to fall vs vehicle-treated mutant mice [2, 10]: took more time to fall off the rod
- rotarod speed at fall, without outliers ([2]; 12 weeks of age, higher dose (30 mg/kg), outliers removed): effect at the higher dose disappeared
- affinity for muscarinic acetylcholine receptors [3]: low micromolar range
- PPI, treatment differences ([4]; 8 weeks of age): No treatment differences
- startle response vs vehicle-treated mutant mice ([4]; 8 weeks of age, 30 mg/kg p.o. daily): increased startle response
- startle response vs vehicle-treated mutant mice, outliers removed ([4]; 12 weeks of age, 30 mg/kg, outliers removed, p<0.01): increased startle
- startle response, treatment effect ([4]; 12 weeks of age, all data, p<0.08): trend of a treatment effect
- PPI treatment interaction, post hoc ([4]; 12 weeks of age, interaction p<0.05): did not reveal any significant post hoc differences
- clasping vs vehicle-treated mutant mice [5]: clasped less
- breathing variability (breaths/minute) [6]: significantly reduced
- body weight vs vehicle-treated mutant mice [7]: weighed less
- instances of choking [8]: reduced
- weight gain [8]: 10%
